Assays:
anti-ovalbumin IgG = assay: ELISA of plasma anti-ovalbumin IgG after 3 weekly i.v. injections (FIG. 3); type: in vivo, mouse (C3H/HeJ)
Experimental: Groups of four C3H/HeJ mice per experimental point were given the specified treatment as a single i.v. dose via a lateral tail vein. The injection, given in a volume of 200 μL, contained 50 μg of ovalbumin. In animals receiving control (protein free) liposomes, the dose was chosen based on the lipid dose given for the ovalbumin-coated liposome group. This lipid dose was approximately 45 mg/kg. In the groups receiving doxorubicin, the drug dose was approximately 8 mg/kg.
Microtitre plates (Flow Laboratories) were coated with 50 μL of 40 μg/mL ovalbumin and incubated at 4° C. overnight. The plates were washed twice (phosphate buffered saline containing 0.1% (vol/vol) TWEEN® 20) and then blocked with 2% bovine serum albumin (BSA) for 1 hour at 37° C. The plates were rinsed prior to addition of mouse plasma in a final volume of 100 μL (the extent to which the plasma was diluted depended on treatment group). […] Plates were incubated at room temperature for 30 min, washed, and the amount of plate associated β-galactosidase was determined. […] The amount of chlorophenol red produced was determined by measuring absorbance at 570 nm on a […] ® plate reader. Antibody levels were estimated on the basis of standard curves consisting of known quantities of a rabbit polyclonal anti-ovalbumin IgG (Cortex Biochemicals, Calif., USA). […]

RES = conditions: in vivo; cited from earlier work
[1] = mouse, in vivo; cited from earlier work

Substance | anti-ovalbumin IgG level (anti-ovalbumin IgG) [μg/mL plasma] | circulation lifetimes for the liposomal carrier (RES) | liposome accumulation in the liver (RES) | spleen and bone marrow cellularity (RES) | maximum tolerated dose [1]
free ovalbumin: IMJECT® (ovalbumin) obtained from Pierce | 2.1 | – | – | – | –
liposomal doxorubicin | – | significant increases | significant decreases | extended suppression | greater than 60 mg doxorubicin/kg

— patent US5780054A, “Methods for increasing the circulation half-life of protein-based therapeutics” (University of British Columbia, priority 1996, dated 1998)
